Several values for one entry are separate records, joined by “and”; a condition that tells them apart may be missing. Equal entries are not always repeated. Entries after “also recorded” stand apart in the source; their conditions may differ. One block for each molecule: values may come before it.
How the values were obtained:
DIFI cells = assay: MTT cytotoxicity, DIFI cells; type: cell-based, human
Description: (§1) Cell Lines. MDA-Panc3 cells(pancreas carcinoma), DiFi cells (colon carcinoma), and KB cells (squamous carcinoma) were used for in vitro data.
(§2) Cytotoxicity Assay. 8,000 cells/well in 135 ul of Dubelco's MEM with 10% fetal bovine serum (FBS) was added to 96-well culture plates. The plates were incubated for 14 h at 37° in the presence of 5% CO2. 15 µL of CPT, liposomal CPT (L-CPT), and empty liposomes (ELs) with CPT were added in concentrations of […] CPT. Lipids were added to each sample (5-25:1 lipid:drug weight ratio). The cells were incubated in the presence of drug for 24 to 120 h. After […] of 5 mg/ml MTT in PBS was added to the samples, the cells were incubated at 37° for 2 h. 100 µL of lysis buffer (50 ml DMF, 20 gm SDS, to total volume 100 ml with water, adjusted to pH 4.7 with NaOH) was added to each well. Plates were incubated for 14h at 37°, then read at 570 nm in a kinetic microplate reader. A dose of 0.1 M blank lipid was used as a control for 100% survival.
(§3) LC-CPT consisting of 12.5:1 DO-NGPE:CPT was used for in vitro assays of cytotoxicity. Lethal cellular injury induced by CPT requires prolonged exposure, cytotoxicity of L-CPT and controls were determined at 24, 72, and 120 hr intervals of continuous drug exposure.

KB cells = assay: MTT cytotoxicity, KB cells; type: cell-based, human
Description: as §1, §2, §3

MDA-Panc3 cells = assay: MTT cytotoxicity, MDA-Panc3 cells; type: cell-based, human; conditions: 24-120 h
Description: as §1, §2, §3

P388 leukemia = assay: Survival of mice inoculated IP with P388 leukemia; type: in vivo, mouse (B6D2Fl); conditions: for long-term survivors, percent: FIG. 5b; for % T/C: 24 h after inoculation
L1210 leukemia = assay: Survival of mice inoculated IP with L1210 leukemia; type: in vivo, mouse (B6D2Fl); conditions: for % T/C: 24 h after inoculation
Description: In Vivo Protocol. B6D2Fl mice (Charles River Laboratories, Wilmington, Mass., U.S.A.) were injected with […] L1210 leukemia cells via the intraperitoneal route. A single intraperitoneal treatment with ELs, CPT, L-CPT, ELs +CPT was administered 24 hours after tumor inoculation. Five animals were used in each group except for the control group which consisted of 7 untreated mice.
Statistical Considerations. Animal survival data was plotted using the method described by Kaplan and Meier (Kaplan and Meier, 1958):
Because LC-CPT appeared to have improved potency compared to free CPT and LC-CPT caused early death at the highest doses, mice inoculated with L1210 leukemia were treated with doses of 30 to 60 mg/kg free CPT or 10 to 20 mg/kg of LC-CPT (Table 6). […] One animal treated with 15 mg/kg free CPT plus lipid survived 50 days.

[1] = Organ distribution after i.v. administration; type: in vivo, mice
Solubility of CPT = type: physicochemical
Description: Some lipophilic drugs such as taxol and taxotere can be solubilized by mild detergents, surfactants and alcohol- containing solutions; however, no similar vehicle has been identified for CPT lactone. […] Solutions containing chloroform and methanol can solubilize CPT, but are too toxic for clinically relevant studies.

[2] = it has been shown; cited from earlier work
[3] = Lipids screened for complexation with CPT (fluorescent microscopy; % bound); type: physicochemical
Description: In order to prepare LC-CPT (a liposomal preparation containing CPT within spherical lipid vesicles) various individual lipids were screened for complexation with CPT. […] CPT crystals and lipid/CPT complexes of >0.4 microns can be visualized under a fluorescent microscope (since CPT fluoresces due to its rigid ring structure). […] Therefore, the better a lipid complexes with CPT the less CPT crystals are formed, and the more lipid/CPT complexes are formed.
Drug/lipid Complex Preparation. CPT was mixed in ratios of from 2:1 to 25:1 w/w lipid:drug in chloroform-methanol (8:1). For studies where CPT was radiolabeled, approximately 0.02 uCi/ml [^3 H] CPT was added to the preparation. Trace quantities of ^14 C labeled cholesterol was added to samples requiring lipid labeling. For small samples, the lipids were dried in 12×75 mm culture tubes under a stream of nitrogen gas. For large samples, a rotavapor (Buchi RE140, Switzerland) was used to dry lipids in a 100 to 1000 ml round bottom flasks. […] For liposomal CPT 0.9% Nace was used. Preparations were screened for lipid entrapment by light and fluorescent microscopy (Nikon Labophot-2, Japan). […]
Lipids of varying carbon chain length, charge, and saturation, alone or in different combinations, were empirically screened for their ability to form liposomes incorporating CPT by fluorescent microscopy.

[4] = Chromatographic evaluation of CPT in the liposome fraction; type: physicochemical; conditions: lipid used alone
Description: Chromatography. A 30 cm agarose 0.5M column is used to separate liposome-bound drug from free CPT. PBS is used as the mobile phase for all preparations. Twenty samples were collected in 3 mL aliquots for a total of 60 mLs. Fluorescence and scintigraphy were used to detect encapsulated and free drug. Fluorimetry. Aliquots of 20 μl from each collection tube were transferred to cuvets containing 2 ml methanol. Fluorimetry was performed as described by Hart et al. (Hart et al., 1969). Fluorescence was measured at an excitation wavelength of 370 nm and emission wavelength of 434 nm (Perkin-Elmer MPF44A, Norwalk, Conn., U.S.A.). Two ml of ethanol was used as a control for machine calibration.
Chromatographic evaluation confirmed that <5% of CPT was incorporated in the liposome fraction of the preparation, the rest presumably being solubilized or in small particles not detectable by fluorescence microscopy.
(§4) These observation led the present inventors to other negatively charged lipids. […] Chromatographic evaluation of these preparations confirmed again that <5% of CPT eluted with the liposome fraction, the rest of the drug eluting later in a large number of consecutive fractions. By differential centrifugation, the lipid-binding efficiency of cardiolipin was about 67% and that of DO-NGPE 97%. DO-NGPE-CPT was, therefore, selected for further biological and pharmacological studies.

[5] = Lipid-binding efficiency by differential centrifugation; type: physicochemical
Description: Determination of Entrapment Efficiency.
A modification of the Ficoll flotation method for separating entrapped from free drug was used (Fraley et al.). […] samples were added to 12×75 mm culture tubes. One ml of 30% Ficoll was layered on the liposome preparation, then one ml of PBS was layered on top of the Ficoll. The tube was spun for 30 min at 3400 rpm in Sorvall GS2-B swing rotor. The percent entrapment was calculated with the formula: [formula]
as §4

[6] = system: KB, MDA-Panc3, and DIFI cell lines; assay: MTT cytotoxicity, KB, MDA-Panc3 and DIFI cell lines taken together; type: cell-based, human
Description: as §1, §2, §3

SMILES: CC[C@@]1(O)C(=O)OCc2c1cc1n(c2=O)Cc2cc3ccccc3nc2-1 [CPT, Camptothecin]
- cytotoxicity (in words) (DIFI cells; 24-120 h): significantly more toxic to cells at a concentration of 1M compared to 0.1M
- cellular viability (DIFI cells; 120 h): approximately 40%
- cytotoxicity (in words) (KB cells; 24 h): somewhat more sensitive to CPT at 24 h than DIFI cells
- cellular viability (KB cells; 120 h): approximately 40%
- cytotoxicity (in words) (MDA-Panc3 cells): modestly sensitive; also recorded: significantly more toxic to cells at a concentration of 1 μmol compared to 0.1 μmol; also recorded: somewhat more sensitive to CPT at 24 h than DIFI cells
- long-term survivors, percent (P388 leukemia; IP, 20 mg/Kg): 20%
- long-term survivors, percent (P388 leukemia; IP, 40 mg/Kg): 60%
- treatment-related deaths / toxicity at 40 mg/kg (P388 leukemia; IP, 40 mg/kg CPT): one treatment related death (day 8)
- antitumor activity, P388 (in words) (P388 leukemia; P388, IP): No activity
- 50-day survivors (P388 leukemia; P388, IP, 10 mg/kg CPT): none
- % T/C (P388 leukemia; P388, IP, 10 mg/kg CPT): 121%
- 50-day survivors (P388 leukemia; P388, IP, 20 mg/kg CPT): none
- % T/C (P388 leukemia; P388, IP, 20 mg/kg CPT): 100%
- 50-day survivors / long-term survivors (P388 leukemia; P388, IP, 40 mg/kg CPT, 40 mg/kg): 3 and 3/5
- %T/C, similar antitumor activity compared (P388 leukemia; P388, IP, dose not given): 207%
- antitumor activity / survival, L1210 (in words) (L1210 leukemia): inactive
- 50-day survivors (L1210 leukemia; 30 mg/kg CPT): 0
- % T/C (L1210 leukemia; 30 mg/kg CPT): 85%
- 50-day survivors (L1210 leukemia; 45 mg/kg CPT): 0
- % T/C (L1210 leukemia; 45 mg/kg CPT): 85%
- 50-day survivors (L1210 leukemia; 60 mg/kg CPT): 0
- % T/C (L1210 leukemia; 60 mg/kg CPT): 92%
- GI Tract level ([1]; 6 hrs, i.v. 10 mg/kg CPT): 2.562 ± 0.515 μg/ml or μg/mg dry tissue
- Heart level ([1]; 6 hrs, i.v. 10 mg/kg CPT): 1.458 ± 0.555 μg/ml or μg/mg dry tissue
- Kidney level ([1]; 6 hrs, i.v. 10 mg/kg CPT): 0.443 ± 0.164 μg/ml or μg/mg dry tissue
- Liver level ([1]; 6 hrs, i.v. 10 mg/kg CPT): 2.077 ± 0.402 μg/ml or μg/mg dry tissue
- Lung level ([1]; 6 hrs, i.v. 10 mg/kg CPT): 38.217 ± 3.061 μg/ml or μg/mg dry tissue
- GI Tract level ([1]; 24 hrs, i.v. 10 mg/kg CPT): 0.492 ± 0.148 μg/ml or μg/mg dry tissue
- Heart level ([1]; 24 hrs, i.v. 10 mg/kg CPT): 0.228 ± 0.092 μg/ml or μg/mg dry tissue
- Kidney level ([1]; 24 hrs, i.v. 10 mg/kg CPT): 0.539 ± 0.428 μg/ml or μg/mg dry tissue
- Liver level ([1]; 24 hrs, i.v. 10 mg/kg CPT): 0.429 ± 0.124 μg/ml or μg/mg dry tissue
- Lung level ([1]; 24 hrs, i.v. 10 mg/kg CPT): 12.276 ± 5.363 μg/ml or μg/mg dry tissue
- drug level in the lungs, free CPT relative to LC-CPT ([1]; i.v.): about 180 -fold
- biodistribution / clearance (in words) ([1]; i.v., mice, listed as free CPT): rapidly cleared from the blood; also recorded: Heart and kidney levels of free CPT were higher than those of LC-CPT
- concentration at 6 h ([1]; mouse, in vivo, iv, 6 hrs, i.v. 10 mg/kg CPT, read-out: Blood level): 0.069 ± 0.039 µg/mL
- concentration at 24 h ([1]; mouse, in vivo, iv, 24 hrs, i.v. 10 mg/kg CPT, read-out: Blood level): 0.008 ± 0.012 µg/mL
- aqueous solubility (in words) (Solubility of CPT): poor aqueous solubility
- solubility in DMSO, Tween-20, cremophor, and methanol (in words) (Solubility of CPT; CPT lactone): crystallization and precipitation of drug occurs
- activity of closed-lactone form relative to sodium salt [2]: 10 fold

- Crystals ([3]; Table 1, lipid alone with CPT, fluorescent microscopy): no
- CPT incorporated in / eluted with the liposome fraction [4]: < 5%
- lipid-binding efficiency [5]: 97%
SMILES: CCCCCCCC/C=C\CCCCCCCC(=O)OCC(COP(=O)(O)OCCNC(=O)CCCC(=O)O)OC(=O)CCCCCCC/C=C\CCCCCCCC (centres unmarked) [Dioleoyl-NGPE, dioleoyl-N-glutaryl-phosphatidyl ethanolamine]
- interaction with CPT (in words) ([3]; listed as DO-NGPE): homogeneous and milky preparations devoid of drug crystals; also recorded: most favorable interaction
- antitumor activity in vitro (in words) [6]: does not appear to have any intrinsic antitumor activity and does not inhibit the effects of CPT

— US5834012A, “Lipid complexed topoisomerase I inhibitors” (Perez-Soler; Roman, priority 1995, dated 1998)
